Reference: the NIST ThermoML archive (doi:10.1016/j.jct.2016.07.026)

Test: wn = mass fraction of the nth substance listed
Conditions: 101 kPa, Liquid, Concentric cylinders viscometry

O=C([O-])[O-].[K+].[K+] [potassium carbonate] + O
viscosity [mPa·s]
Conditions	303.2 K	313.2 K	323.2 K
w1 = 0.15	1.27	1.08	0.92
w1 = 0.2	1.43	1.22	1.05
w1 = 0.2501	1.64	1.39	1.2
